test system: Leiomyosarcoma tumour cell line SK-UT-1B; assay: Test 1: inhibition of the proliferation of cultivated human tumour cells (14C-thymidine incorporation), SK-UT-1B; type: cell-based; settings: Homo sapiens, Skut1B; in vitro Test 1; SK-UT-1B cells; 48 hours' incubation, then 14C-thymidine for a further 24 hours; IC50 of inhibition of incorporated 14C-thymidine; read-out: Inhibition of SKUT-1B proliferation
Source text: Inhibition of the Proliferation of Cultivated Human Tumour Cells
Cells of the Leiomyosarcoma tumour cell line SK-UT-1B or non-small-cell lung tumour cell line NCI-H460 (obtained from the American Type Culture Collection (ATCC)) were cultivated in Minimum Essential Medium with non-essential amino acids (Gibco), supplemented with sodium pyruvate (1 mMol), glutamine (2 mMol) and 10% foetal calf serum (Gibco) or RPMI1640 Medium (Gibco) and 10% foetal calf serum (Gibco) and harvested in the logarithmic growth phase. Then the SK-UT-1B cells were placed in Cytostar® multi-well plates (Amersham) at a density of 4000 cells per well or 3000 cells per well for NCI-H460 cells and incubated overnight in an incubator. Various concentrations of the compounds (dissolved in DMSO; final concentration: 0.1%) were added to the cells. After 48 hours' incubation, ^14C-thymidine (Amersham) was added to each well and incubation was continued for a further 24 hours. The quantity of ^14C-thymidine which was incorporated into the tumour cells in the presence of the inhibitor and which represents the number of cells in the S phase was measured in a Wallace 1450 Microbeta Liquid Scintillation Counter. IC50 values for the inhibition of the proliferation (=inhibition of incorporated ^14C-thymidine) were calculated, correcting for the background radiation. All the measurements were done twice.
The following Table contains the results obtained with the in vitro Test 1 (++ denotes <0.01 μM, + denotes 0.01–1.0 μM): […]

SMILES	IC50 [nM]
CN(C)CCN(c1ccc(N/C(=C2\C(=O)Nc3ccc(NS(=O)(=O)c4ccccc4)cc32)c2ccccc2)cc1)S(=O)(=O)c1ccccc1 [Example 4, (Z)-3-{1-[4-(N-(2-dimethylaminoethyl)-N-phenylsulphonyl-amino)-phenylamino)-1-phenyl-methylidene}-5-phenylsulphonylamino-2-indolinone]	< 10
CC(=O)N(CC(=O)N(C)C)c1ccc(N/C(=C2\C(=O)Nc3ccc(NS(=O)(=O)c4ccccc4)cc32)c2ccccc2)cc1 [Example 164, (Z)-3-{1-[4-(N-dimethylaminocarbonylmethyl-N-acetyl-amino)-phenylamino]-1-phenyl-methylidene}-5-phenylsulphonylamino-2-indolinone]	10 to 1000
CN(C)CCN(c1ccc(N/C(=C2\C(=O)Nc3ccc(N(C)S(=O)(=O)c4ccccc4)cc32)c2ccccc2)cc1)S(C)(=O)=O [Example 207, (Z)-3-{1-[4-(N-(2-dimethylamino-ethyl)-N-methylsulphonyl-amino)-phenylamino)-1-phenyl-methylidene}-5-(N-methyl-N-phenylsulphonyl-amino)-2-indolinone]	10 to 1000
CN1CCN(Cc2ccc(N/C(=C3\C(=O)Nc4ccc(NS(=O)(=O)c5ccccc5)cc43)c3ccccc3)cc2)CC1 [Example 9, (Z)-3-{1-[4-(4-methylpiperazinomethyl)-phenylamino]-1-phenyl-methylidene}-5-phenylsulphonylamino-2-indolinone]	10 to 1000
Cc1noc(C)c1S(=O)(=O)Nc1ccc2c(c1)/C(=C(/Nc1ccc(CN3CCCCC3)cc1)c1ccccc1)C(=O)N2 [Example 117, (Z)-3-{1-[4-(piperidinomethyl)-phenylamino]-1-phenyl-methylidene}-5-(3,5-dimethylisoxazol-4-ylsulphonylamino)-2-indolinone]	10 to 1000
CS(=O)(=O)Nc1ccc2c(c1)/C(=C(/Nc1ccc(CN3CCCC3)cc1)c1ccccc1)C(=O)N2 [Example 145, (Z)-3-{1-[4-(pyrrolidin-1-ylmethyl)-phenylamino]-1-phenyl-methylidene}-5-methylsulphonylamino-2-indolinone]	10 to 1000
O=C1Nc2ccc(NS(=O)(=O)C3CC3)cc2/C1=C(/Nc1ccc(CN2CCCCC2)cc1)c1ccccc1 [Example 120, (Z)-3-{1-[4-(piperidinomethyl)-phenylamino]-1-phenyl-methylidene}-5-cyclopropylsulphonylamino-2-indolinone]	< 10
CCS(=O)(=O)Nc1ccc2c(c1)/C(=C(/Nc1ccc(CN3CCCC3)cc1)c1ccccc1)C(=O)N2 [Example 144, (Z)-3-{1-[4-(pyrrolidin-1-ylmethyl)-phenylamino]-1-phenyl-methylidene}-5-ethylsulphonylamino-2-indolinone]	10 to 1000
CN(c1ccc(N/C(=C2\C(=O)Nc3ccc(NS(=O)(=O)c4ccccc4)cc32)c2ccccc2)cc1)S(C)(=O)=O [Example 42, (Z)-3-[1-(4-(N-methyl-N-methylsulphonyl-amino)-phenylamino)-1-phenyl-methylidene]-5-phenylsulphonylamino-2-indolinone]	10 to 1000
CCS(=O)(=O)Nc1ccc2c(c1)/C(=C(/Nc1ccc(CN(C)C)cc1)c1ccccc1)C(=O)N2 [Example 70, (Z)-3-{1-[4-dimethylaminomethyl-phenylamino]-1-phenyl-methylidene}-5-ethylsulphonylamino-2-indolinone]	10 to 1000
CCS(=O)(=O)Nc1ccc2c(c1)/C(=C(/Nc1ccc(CN3CCCCC3)cc1)c1ccccc1)C(=O)N2 [Example 99, (Z)-3-{1-[4-(piperidinomethyl)-phenylamino]-1-phenyl-methylidene}-5-ethylsulphonylamino-2-indolinone]	< 10
O=C1Nc2ccc(NS(=O)(=O)c3cccc([N+](=O)[O-])c3)cc2/C1=C(/Nc1ccc(CN2CCCCC2)cc1)c1ccccc1 [Example 112, (Z)-3-{1-[4-(piperidinomethyl)-phenylamino]-1-phenyl-methylidene}-5-(3-nitrophenylsulphonylamino)-2-indolinone]	< 10
CN(C(=O)CN1CCCCC1)c1ccc(N/C(=C2\C(=O)Nc3ccc(NS(=O)(=O)c4ccccc4)cc32)c2ccccc2)cc1 [Example 56, (Z)-3-[1-(4-(N-methyl-N-piperidinomethylcarbonyl-amino)-phenylamino)-1-phenyl-methylidene]-5-phenylsulphonylamino-2-indolinone]	< 10
O=C1Nc2ccc(NS(=O)(=O)c3ccccc3)cc2/C1=C(/Nc1ccccc1)c1ccccc1 [Example 22, (Z)-3-(1-phenylamino-1-phenyl-methylidene)-5-phenylsulphonylamino-2-indolinone]	10 to 1000
O=C1Nc2ccc(NS(=O)(=O)c3cccc4ccccc34)cc2/C1=C(/Nc1ccc(CN2CCCCC2)cc1)c1ccccc1 [Example 104, (Z)-3-{1-[4-(piperidinomethyl)-phenylamino]-1-phenyl-methylidene}-5-(naphthalin-1-ylsulphonylamino)-2-indolinone]	< 10
CCS(=O)(=O)Nc1ccc2c(c1)/C(=C(/Nc1ccc(CCN(C)C)cc1)c1ccccc1)C(=O)N2 [Example 72, (Z)-3-{1-[4-(2-dimethylamino-ethyl)-phenylamino]-1-phenyl-methylidene}-5-ethylsulphonylamino-2-indolinone]	10 to 1000
O=C1Nc2ccc(NS(=O)(=O)C3CC3)cc2/C1=C(/Nc1ccc(CN2CCCC2)cc1)c1ccccc1 [Example 142, (Z)-3-{1-[4-(pyrrolidin-1-ylmethyl)-phenylamino]-1-phenyl-methylidene}-5-cyclopropylsulphonylamino-2-indolinone]	10 to 1000
O=C1Nc2ccc(NS(=O)(=O)c3cccnc3)cc2/C1=C(/Nc1ccc(C(=O)N2CCCC2)cc1)c1ccccc1 [Example 88, (Z)-3-{1-[4-(pyrrolidin-1-ylcarbonyl)-phenylamino]-1-phenyl-methylidene}-5-(pyridin-3-ylsulphonylamino)-2-indolinone]	10 to 1000
CCC(=O)NCCN(C(=O)CC)c1ccc(N/C(=C2\C(=O)Nc3ccc(NS(=O)(=O)c4ccccc4)cc32)c2ccccc2)cc1 [Example 31, (Z)-3-{1-[4-(N-(2-propionylamino-ethyl)-N-propionyl-amino)-phenylamino]-1-phenyl-methylidene}-5-phenylsulphonylamino-2-indolinone]	< 10
O=C1Nc2ccc(NS(=O)(=O)c3ccccc3)cc2/C1=C(/Nc1ccc(C(=O)NCc2ccccc2)cc1)c1ccccc1 [Example 158, (Z)-3-{1-[4-(benzylaminocarbonyl)-phenylamino]-1-phenyl-methylidene}-5-phenylsulphonylamino-2-indolinone]	10 to 1000
CC(=O)N(C)c1ccc(N/C(=C2\C(=O)Nc3ccc(NS(=O)(=O)c4ccccc4)cc32)c2ccccc2)cc1 [Example 20, (Z)-3-{1-[4-(N-methyl-N-acetyl-amino)-phenylamino]-1-phenyl-methylidene}-5-phenylsulphonylamino-2-indolinone]	10 to 1000
CC1CCCC(C)N1Cc1ccc(N/C(=C2\C(=O)Nc3ccc(NS(=O)(=O)c4cccc([N+](=O)[O-])c4)cc32)c2ccccc2)cc1 (stereo not drawn) [Example 66, (Z)-3-{1-[4-((2,6-dimethylpiperidino)-methyl)-phenylamino]-1-phenyl-methylidene}-5-(3-nitrophenylsulphonylamino)-2-indolinone]	< 10
CS(=O)(=O)N(CCN)c1ccc(N/C(=C2\C(=O)Nc3ccc(NS(=O)(=O)c4ccccc4)cc32)c2ccccc2)cc1 [Example 2, (Z)-3-{1-[4-(N-(2-aminoethyl)-N-methylsulphonyl-amino)-phenylamino]-1-phenyl-methylidene}-5-phenylsulphonylamino-2-indolinone]	10 to 1000
CCS(=O)(=O)Nc1ccc2c(c1)/C(=C(/Nc1ccc(CN(C)Cc3ccccc3)cc1)c1ccccc1)C(=O)N2 [Example 71, (Z)-3-{1-[4-(N-benzyl-N-methyl-aminomethyl)-phenylamino]-1-phenyl-methylidene}-5-ethylsulphonylamino-2-indolinone]	10 to 1000
CC(C)S(=O)(=O)Nc1ccc2c(c1)/C(=C(/Nc1ccc(CN3CCCCC3)cc1)c1ccccc1)C(=O)N2 [Example 101, (Z)-3-{1-[4-(piperidinomethyl)-phenylamino]-1-phenyl-methylidene}-5-isopropylsulphonylamino-2-indolinone]	< 10
O=C1Nc2ccc(NS(=O)(=O)Cc3ccccc3)cc2/C1=C(/Nc1ccc(CN2CCCC2)cc1)c1ccccc1 [Example 58, (Z)-3-{1-[4-(pyrrolidin-1-ylmethyl)-phenylamino]-1-phenyl-methylidene}-5-benzylsulphonylamino-2-indolinone]	10 to 1000

same assay, conditions: in vitro Test 1; SK-UT-1B cells; 48 hours' incubation, then 14C-thymidine for a further 24 hours; IC50 of inhibition of incorporated 14C-thymidine; read-out: Inhibition of SKUT-1B proliferation

SMILES	IC50 [nM]
CN(C)Cc1ccc(N/C(=C2\C(=O)Nc3ccc(NS(=O)(=O)c4ccccc4)cc32)c2ccccc2)cc1 [Example 36, (Z)-3-[1-(4-dimethylaminomethyl-phenylamino)-1-phenyl-methylidene]-5-phenylsulphonylamino-2-indole]	< 10

Reference: patent US7160901B2, “Substituted indolinones, preparation thereof and their use as pharmaceutical compositions” (Boehringer Ingelheim Pharma GmbH & Co. KG, priority 2000, dated 2007)
